According to patent US11084829B2, “Ubiquitin-specific-processing protease 7 (USP7) modulators and uses thereof” (RAPT THERAPEUTICS, INC., priority 2018, dated 2021):

These molecules were tested against USP7 (Homo sapiens, UniProt Q93009) (assay: USP7 inhibitory potency (IC50)).
Assay type: biochemical
Protocol: Activity for compounds described herein is provided in Table 2, wherein potency levels are provided as follows: (Potency: USP7 IC50: A<0.01 μM; B=0.01-0.1 μM; C=>0.1 μM.

USP7, sequence (Q93009 whole entry): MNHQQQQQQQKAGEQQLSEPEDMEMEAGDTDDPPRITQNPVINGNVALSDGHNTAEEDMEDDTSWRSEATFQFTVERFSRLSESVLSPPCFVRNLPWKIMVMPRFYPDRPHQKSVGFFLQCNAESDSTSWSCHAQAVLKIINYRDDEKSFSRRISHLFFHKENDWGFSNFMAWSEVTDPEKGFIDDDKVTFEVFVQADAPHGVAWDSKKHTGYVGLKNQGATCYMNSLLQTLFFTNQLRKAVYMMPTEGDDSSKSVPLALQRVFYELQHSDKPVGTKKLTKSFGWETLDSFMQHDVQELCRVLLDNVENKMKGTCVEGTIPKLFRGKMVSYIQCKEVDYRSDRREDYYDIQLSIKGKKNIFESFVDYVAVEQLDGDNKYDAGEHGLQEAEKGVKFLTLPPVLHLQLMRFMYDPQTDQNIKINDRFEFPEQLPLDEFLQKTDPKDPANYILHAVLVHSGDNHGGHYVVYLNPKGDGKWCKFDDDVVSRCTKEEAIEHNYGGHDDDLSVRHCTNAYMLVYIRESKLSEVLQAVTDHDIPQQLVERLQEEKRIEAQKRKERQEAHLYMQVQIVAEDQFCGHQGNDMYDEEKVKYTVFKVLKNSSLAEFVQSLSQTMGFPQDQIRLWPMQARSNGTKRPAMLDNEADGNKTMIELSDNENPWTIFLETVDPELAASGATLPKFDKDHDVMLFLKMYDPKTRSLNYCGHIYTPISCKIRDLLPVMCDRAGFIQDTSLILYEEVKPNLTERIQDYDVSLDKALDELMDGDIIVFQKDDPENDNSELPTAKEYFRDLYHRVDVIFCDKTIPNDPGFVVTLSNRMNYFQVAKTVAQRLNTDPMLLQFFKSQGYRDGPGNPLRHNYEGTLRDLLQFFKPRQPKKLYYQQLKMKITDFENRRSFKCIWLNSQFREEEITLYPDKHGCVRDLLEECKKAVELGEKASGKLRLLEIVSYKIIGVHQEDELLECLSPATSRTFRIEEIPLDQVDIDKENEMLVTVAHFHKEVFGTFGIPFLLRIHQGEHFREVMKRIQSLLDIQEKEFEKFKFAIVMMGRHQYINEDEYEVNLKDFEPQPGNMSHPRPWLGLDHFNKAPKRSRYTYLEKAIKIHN

| IC50 [nM] | Compound |
| --- | --- |
| < 10 | C[C@H]1CNC[C@H](C)N1Cc1c(Cl)cc(Cl)cc1-c1ccnc2cc(CN3C(=O)CCN(C)C3=O)sc12 [Example 49, 3-((7-(3,5-dichloro-2-(((2S,6S)-2,6-dimethylpiperazin-1-yl)methyl)phenyl)thieno[3,2-b]pyridin-2-yl)methyl)-1-methyldihydropyrimidine-2,4(1H,3H)-dione] |
| < 10 | Cc1cc(Cl)cc(-c2ncnc3cc(CN4C(=O)C5C(C4=O)C5(C)C)sc23)c1CN1CCNC[C@@H]1C (stereo partly drawn) [Example 50, 3-((4-(5-chloro-3-methyl-2-(((S)-2-methylpiperazin-1-yl)methyl)phenyl)thieno[3,2-d]pyrimidin-6-yl)methyl)-6,6-dimethyl-3-azabicyclo[3.1.0]hexane-2,4-dione] |
| < 10 | Cc1cc(Cl)cc(-c2ncnc3cc(CN4C(=O)C5CC5C4=O)sc23)c1CN1CCNC[C@@H]1C (stereo partly drawn) [Example 51, 3-((4-(5-chloro-3-methyl-2-(((S)-2-methylpiperazin-1-yl)methyl)phenyl)thieno[3,2-d]pyrimidin-6-yl)methyl)-3-azabicyclo[3.1.0]hexane-2,4-dione] |
| 10 to 100 | CC[C@H]1CNCCN1Cc1c(C)cc(Cl)cc1-c1ncnc2cc(CN3C(=O)C4C(C3=O)C4(C)C)sc12 (stereo partly drawn) [Example 52, 3-((4-(5-chloro-2-(((S)-2-ethylpiperazin-1-yl)methyl)-3-methylphenyl)thieno[3,2-d]pyrimidin-6-yl)methyl)-6,6-dimethyl-3-azabicyclo[3.1.0]hexane-2,4-dione] |
| 10 to 100 | Cc1cc(Cl)cc(-c2ncnc3cc(CN4C(=O)C5C(C4=O)C5(C)C)sc23)c1CN1CCN(C)C[C@@H]1C (stereo partly drawn) [Example 53, 3-((4-(5-chloro-2-(((S)-2,4-dimethylpiperazin-1-yl)methyl)-3-methylphenyl)thieno[3,2-d]pyrimidin-6-yl)methyl)-6,6-dimethyl-3-azabicyclo[3.1.0]hexane-2,4-dione] |
| < 10 | CCN1CCN(Cc2c(C)cc(Cl)cc2-c2ncnc3cc(CN4C(=O)C5C(C4=O)C5(C)C)sc23)[C@@H](C)C1 (stereo partly drawn) [Example 54, 3-((4-(5-chloro-2-(((S)-4-ethyl-2-methylpiperazin-1-yl)methyl)-3-methylphenyl)thieno[3,2-d]pyrimidin-6-yl)methyl)-6,6-dimethyl-3-azabicyclo[3.1.0]hexane-2,4-dione] |
| 10 to 100 | Cc1cc(Cl)cc(-c2ncnc3cc(CN4C(=O)C5CC5C4=O)sc23)c1CN1CCN(C)C[C@@H]1C (stereo partly drawn) [Example 55, 3-((4-(5-chloro-2-(((S)-2,4-dimethylpiperazin-1-yl)methyl)-3-methylphenyl)thieno[3,2-d]pyrimidin-6-yl)methyl)-3-azabicyclo[3.1.0]hexane-2,4-dione] |
| 10 to 100 | Cc1cc(Cl)cc(-c2ncnc3cc(CN4C(=O)C5C(C4=O)C5(C)C)sc23)c1CN1[C@@H](C)CNC[C@@H]1C (stereo partly drawn) [Example 56, 3-((4-(5-chloro-2-(((2S,6S)-2,6-dimethylpiperazin-1-yl)methyl)-3-methylphenyl)thieno[3,2-d]pyrimidin-6-yl)methyl)-6,6-dimethyl-3-azabicyclo[3.1.0]hexane-2,4-dione] |
| < 10 | Cc1cc(Cl)cc(-c2ncnc3cc(CN4C(=O)C5CC5C4=O)sc23)c1CN1[C@@H](C)CNC[C@@H]1C (stereo partly drawn) [Example 57, 3-((4-(5-chloro-2-(((2S,6S)-2,6-dimethylpiperazin-1-yl)methyl)-3-methylphenyl)thieno[3,2-d]pyrimidin-6-yl)methyl)-3-azabicyclo[3.1.0]hexane-2,4-dione] |
| 10 to 100 | Cc1cc(C(F)(F)F)cc(-c2ncnc3cc(CN4C(=O)C5CC5C4=O)sc23)c1CN1CCNC[C@@H]1C (stereo partly drawn) [Example 58, 3-((4-(3-methyl-2-(((S)-2-methylpiperazin-1-yl)methyl)-5-(trifluoromethyl)phenyl)thieno[3,2-d]pyrimidin-6-yl)methyl)-3-azabicyclo[3.1.0]hexane-2,4-dione] |
| 10 to 100 | Cc1cc(C(F)(F)F)cc(-c2ncnc3cc(CN4C(=O)C5C(C4=O)C5(C)C)sc23)c1CN1CCNC[C@@H]1C (stereo partly drawn) [Example 59, 6,6-dimethyl-3-((4-(3-methyl-2-(((S)-2-methylpiperazin-1-yl)methyl)-5-(trifluoromethyl)phenyl)thieno[3,2-d]pyrimidin-6-yl)methyl)-3-azabicyclo[3.1.0]hexane-2,4-dione] |
| 10 to 100 | Cc1cc(C#N)cc(-c2ncnc3cc(CN4C(=O)C5CC5C4=O)sc23)c1CN1CCNC[C@@H]1C (stereo partly drawn) [Example 60, 3-(6-((2,4-dioxo-3-azabicyclo[3.1.0]hexan-3-yl)methyl)thieno[3,2-d]pyrimidin-4-yl)-5-methyl-4-(((S)-2-methylpiperazin-1-yl)methyl)benzonitrile] |
| 10 to 100 | C[C@H]1CNCCN1Cc1c(F)cc(Cl)cc1-c1ncnc2cc(CN3C(=O)C4CC4C3=O)sc12 (stereo partly drawn) [Example 61, 3-((4-(5-chloro-3-fluoro-2-(((S)-2-methylpiperazin-1-yl)methyl)phenyl)thieno[3,2-d]pyrimidin-6-yl)methyl)-3-azabicyclo[3.1.0]hexane-2,4-dione] |
| > 100 | Cc1ccc(CN2CCNC[C@@H]2C)c(-c2ncnc3cc(CN4C(=O)C5CC5C4=O)sc23)c1 (stereo partly drawn) [Example 62, 3-((4-(5-methyl-2-(((S)-2-methylpiperazin-1-yl)methyl)phenyl)thieno[3,2-d]pyrimidin-6-yl)methyl)-3-azabicyclo[3.1.0]hexane-2,4-dione] |
| > 100 | C[C@H]1CNCCN1Cc1ccc(F)cc1-c1ncnc2cc(CN3C(=O)C4CC4C3=O)sc12 (stereo partly drawn) [Example 63, 3-((4-(5-fluoro-2-(((S)-2-methylpiperazin-1-yl)methyl)phenyl)thieno[3,2-d]pyrimidin-6-yl)methyl)-3-azabicyclo[3.1.0]hexane-2,4-dione] |
| 10 to 100 | C[C@H]1CNCCN1Cc1ccc(Cl)cc1-c1ncnc2cc(CN3C(=O)C4CC4C3=O)sc12 (stereo partly drawn) [Example 64, 3-((4-(5-chloro-2-(((S)-2-methylpiperazin-1-yl)methyl)phenyl)thieno[3,2-d]pyrimidin-6-yl)methyl)-3-azabicyclo[3.1.0]hexane-2,4-dione] |
| < 10 | Cc1cc(Cl)cc(-c2ncnc3cc(CN4C(=O)C5CC5C4=O)sc23)c1CN1C[C@@H](C)NC[C@@H]1C (stereo partly drawn) [Example 65, 3-((4-(5-chloro-2-(((2S,5R)-2,5-dimethylpiperazin-1-yl)methyl)-3-methylphenyl)thieno[3,2-d]pyrimidin-6-yl)methyl)-3-azabicyclo[3.1.0]hexane-2,4-dione] |
| < 10 | Cc1cc(Cl)cc(-c2ncnc3cc(Cn4c(=O)ccn(C)c4=O)sc23)c1CN1C[C@@H](C)NC[C@@H]1C [Example 66, 3-((4-(5-chloro-2-(((2S,5R)-2,5-dimethylpiperazin-1-yl)methyl)-3-methylphenyl)thieno[3,2-d]pyrimidin-6-yl)methyl)-1-methylpyrimidine-2,4(1H,3H)-dione] |
| < 10 | Cc1cc(Cl)cc(-c2ncnc3cc(CN4C(=O)C5C(C4=O)C5(C)C)sc23)c1CN1C[C@@H](C)NC[C@@H]1C (stereo partly drawn) [Example 67, 3-((4-(5-chloro-2-(((2S,5R)-2,5-dimethylpiperazin-1-yl)methyl)-3-methylphenyl)thieno[3,2-d]pyrimidin-6-yl)methyl)-6,6-dimethyl-3-azabicyclo[3.1.0]hexane-2,4-dione] |
| 10 to 100 | Cc1cc(Cl)cc(-c2ncnc3cc(CN4C(=O)CCC4=O)sc23)c1CN1C[C@@H](C)NC[C@@H]1C [Example 68, 1-((4-(5-chloro-2-(((2S,5R)-2,5-dimethylpiperazin-1-yl)methyl)-3-methylphenyl)thieno[3,2-d]pyrimidin-6-yl)methyl)pyrrolidine-2,5-dione] |
| < 10 | Cc1cc(Cl)cc(-c2ncnc3cc(CN4C(=O)CCCC4=O)sc23)c1CN1C[C@@H](C)NC[C@@H]1C [Example 69, 1-((4-(5-chloro-2-(((2S,5R)-2,5-dimethylpiperazin-1-yl)methyl)-3-methylphenyl)thieno[3,2-d]pyrimidin-6-yl)methyl)piperidine-2,6-dione] |
| 10 to 100 | Cc1cc(Cl)cc(-c2ncnc3cc(CN4C(=O)CC(C)(C)CC4=O)sc23)c1CN1C[C@@H](C)NC[C@@H]1C [Example 70, 1-((4-(5-chloro-2-(((2S,5R)-2,5-dimethylpiperazin-1-yl)methyl)-3-methylphenyl)thieno[3,2-d]pyrimidin-6-yl)methyl)-4,4-dimethylpiperidine-2,6-dione] |
| > 100 | Cc1cc(C)c(CN2CCNC[C@@H]2C)c(-c2ncnc3cc(CN4C(=O)C5CC5C4=O)sc23)c1 (stereo partly drawn) [Example 71, 3-((4-(3,5-dimethyl-2-(((S)-2-methylpiperazin-1-yl)methyl)phenyl)thieno[3,2-d]pyrimidin-6-yl)methyl)-3-azabicyclo[3.1.0]hexane-2,4-dione] |
| > 100 | C[C@H]1CNCCN1Cc1c(F)cccc1-c1ncnc2cc(CN3C(=O)C4CC4C3=O)sc12 (stereo partly drawn) [Example 72, 3-((4-(3-fluoro-2-(((S)-2-methylpiperazin-1-yl)methyl)phenyl)thieno[3,2-d]pyrimidin-6-yl)methyl)-3-azabicyclo[3.1.0]hexane-2,4-dione] |
| < 10 | Cc1cc(Cl)cc(-c2ncnc3cc(Cn4c(=O)ccn(CC(F)(F)F)c4=O)sc23)c1CN1C[C@@H](C)NC[C@@H]1C [Example 73, 3-((4-(5-chloro-2-(((2S,5R)-2,5-dimethylpiperazin-1-yl)methyl)-3-methylphenyl)thieno[3,2-d]pyrimidin-6-yl)methyl)-1-(2,2,2-trifluoroethyl)pyrimidine-2,4(1H,3H)-dione] |
| > 100 | C[C@H]1CNCCN1Cc1c(F)cc(F)cc1-c1ncnc2cc(CN3C(=O)C4CC4C3=O)sc12 (stereo partly drawn) [Example 74, 3-((4-(3,5-difluoro-2-(((S)-2-methylpiperazin-1-yl)methyl)phenyl)thieno[3,2-d]pyrimidin-6-yl)methyl)-3-azabicyclo[3.1.0]hexane-2,4-dione] |
| < 10 | C[C@@H]1CN(Cc2c(Cl)cc(Cl)cc2-c2ncnc3cc(CN4C(=O)C5CC5C4=O)sc23)[C@@H](C)CN1 (stereo partly drawn) [Example 75, 3-((4-(3,5-dichloro-2-(((2S,5R)-2,5-dimethylpiperazin-1-yl)methyl)phenyl)thieno[3,2-d]pyrimidin-6-yl)methyl)-3-azabicyclo[3.1.0]hexane-2,4-dione] |
